Measurements: patent US20200354426A1 (MEDIMMUNE LIMITED, priority 2016, published 2020)
Where two headings read alike, the source gives them in different places. Peptide text beside a SMILES is read from it. * marks the point of attachment. Palmitoyl = CCCCCCCCCCCCCCCC(=O)*

Tests used:
Test in all cases: cAMP activity assay in assay medium (assay 1)
Format in all cases: cell-based
Settings in all cases: assay medium
Human GIPr = target: T1, Human GIPr (Homo sapiens, UniProt P48546)
T1 construct: expressed in transfected cells
T1 sequence (P48546 22-466): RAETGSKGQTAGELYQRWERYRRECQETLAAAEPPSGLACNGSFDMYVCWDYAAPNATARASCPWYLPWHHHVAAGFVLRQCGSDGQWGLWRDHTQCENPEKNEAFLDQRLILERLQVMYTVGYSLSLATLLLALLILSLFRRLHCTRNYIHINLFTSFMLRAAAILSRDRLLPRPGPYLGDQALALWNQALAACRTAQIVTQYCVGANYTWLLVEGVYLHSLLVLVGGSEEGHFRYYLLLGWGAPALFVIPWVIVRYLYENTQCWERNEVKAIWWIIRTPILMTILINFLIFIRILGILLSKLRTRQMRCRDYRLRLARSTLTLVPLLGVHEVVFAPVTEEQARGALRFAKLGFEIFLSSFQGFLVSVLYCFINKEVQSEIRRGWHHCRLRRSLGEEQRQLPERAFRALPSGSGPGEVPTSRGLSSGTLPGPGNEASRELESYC
Excerpt: (§1) Biological Activity of Peptides in Cell-Based cAMP Activity Assay (Assay 1):
(§2) All sample dilutions were made in duplicate.

Human GlucR = target: T2, Human GlucR (Homo sapiens, UniProt P47871)
T2 construct: expressed in transfected cells
Excerpt: as §1, §2

Human GLP1R = Human GLP1R (Homo sapiens, UniProt P43220); set-up: expressed in transfected cells
Excerpt: as §1, §2

Human GLP1R, sequence (P43220 24-463): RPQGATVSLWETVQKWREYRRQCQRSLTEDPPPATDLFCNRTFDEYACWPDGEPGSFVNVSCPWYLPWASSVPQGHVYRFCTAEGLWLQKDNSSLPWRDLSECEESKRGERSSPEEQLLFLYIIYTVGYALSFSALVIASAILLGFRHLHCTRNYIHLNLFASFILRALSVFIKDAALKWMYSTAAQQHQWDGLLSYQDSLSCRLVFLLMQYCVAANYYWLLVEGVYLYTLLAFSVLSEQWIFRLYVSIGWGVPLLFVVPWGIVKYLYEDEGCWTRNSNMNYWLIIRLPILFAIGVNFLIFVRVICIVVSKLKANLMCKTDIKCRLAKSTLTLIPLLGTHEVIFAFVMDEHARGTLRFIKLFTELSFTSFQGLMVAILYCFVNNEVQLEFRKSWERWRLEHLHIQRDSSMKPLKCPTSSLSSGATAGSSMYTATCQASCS
T2 sequence (P47871 26-477): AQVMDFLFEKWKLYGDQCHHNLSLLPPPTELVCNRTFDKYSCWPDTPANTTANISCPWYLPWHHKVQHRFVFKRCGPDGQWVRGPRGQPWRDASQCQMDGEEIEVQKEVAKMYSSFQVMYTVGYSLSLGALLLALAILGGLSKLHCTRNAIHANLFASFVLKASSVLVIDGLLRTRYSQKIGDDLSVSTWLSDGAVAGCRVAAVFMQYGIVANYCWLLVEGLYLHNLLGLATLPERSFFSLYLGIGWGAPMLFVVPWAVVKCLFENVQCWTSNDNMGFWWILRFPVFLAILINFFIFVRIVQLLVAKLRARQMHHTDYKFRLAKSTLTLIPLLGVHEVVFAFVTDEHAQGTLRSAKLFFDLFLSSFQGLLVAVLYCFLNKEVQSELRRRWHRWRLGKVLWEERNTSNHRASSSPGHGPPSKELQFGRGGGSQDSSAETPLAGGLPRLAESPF

| Compound | EC50 (Human GIPr; Table 3, C-terminal acid peptides, read-out: Human GIPr EC50) | EC50 (Human GlucR; Table 3, C-terminal acid peptides, read-out: Human GlucR EC50) | EC50 (Human GLP1R; Table 3, C-terminal acid peptides, read-out: Human GLP1R EC50) | EC50 (Human GIPr; Table 4, read-out: hGIPR EC50) | EC50 (Human GlucR; Table 4, read-out: hGlucR EC50) | EC50 (Human GLP1R; Table 4, read-out: hGLP1R EC50) |
| --- | --- | --- | --- | --- | --- | --- |
| CCCCCCCCCCCCCCCC(=O)N[C@@H](CCC(=O)NCCCC[C@H](NC(=O)[C@H](CC(=O)O)NC(=O)[C@H](CO)NC(=O)[C@@H](NC(=O)[C@H](Cc1ccccc1)NC(=O)[C@@H](NC(=O)CNC(=O)[C@H](CCC(N)=O)NC(=O)[C@H](CO)NC(=O)[C@@H](N)Cc1c[nH]cn1)[C@@H](C)O)[C@@H](C)O)C(=O)N[C@@H](CO)C(=O)N[C@@H](CO)C(=O)N[C@@H](Cc1ccc(O)cc1)C(=O)N[C@@H](CC(C)C)C(=O)N[C@@H](CC(=O)O)C(=O)N[C@@H](CO)C(=O)N[C@@H](CCCNC(=N)N)C(=O)N[C@@H](CO)C(=O)N[C@@H](C)C(=O)N[C@@H](CCCNC(=N)N)C(=O)N[C@@H](CC(=O)O)C(=O)N[C@@H](Cc1ccccc1)C(=O)N[C@H](C(=O)N[C@@H](C)C(=O)N[C@@H](Cc1c[nH]c2ccccc12)C(=O)N[C@@H](CC(C)C)C(=O)N[C@@H](CCC(=O)O)C(=O)N[C@@H](C)C(=O)NCC(=O)NCC(=O)O)C(C)C)C(=O)O [Peptide G973] | 47 nM | 0.0089 nM | 0.012 nM |  |  |  |
| CC(C)C[C@H](NC(=O)[C@H](Cc1ccc(O)cc1)NC(=O)[C@H](CCCCN)NC(=O)[C@H](CO)NC(=O)[C@H](Cc1ccc(O)cc1)NC(=O)[C@H](CC(=O)O)NC(=O)[C@H](CO)NC(=O)[C@@H](NC(=O)[C@H](Cc1ccccc1)NC(=O)[C@@H](NC(=O)CNC(=O)[C@H](CCC(N)=O)NC(=O)[C@H](CO)NC(=O)[C@@H](N)Cc1c[nH]cn1)[C@@H](C)O)[C@@H](C)O)C(=O)N[C@@H](CC(=O)O)C(=O)N[C@@H](CO)C(=O)N[C@@H](CCCNC(=N)N)C(=O)N[C@@H](CCCNC(=N)N)C(=O)N[C@@H](C)C(=O)N[C@@H](CCC(N)=O)C(=O)N[C@@H](CC(=O)O)C(=O)N[C@@H](Cc1ccccc1)C(=O)N[C@H](C(=O)N[C@@H](CCC(N)=O)C(=O)N[C@@H](Cc1c[nH]c2ccccc12)C(=O)N[C@@H](CC(C)C)C(=O)N[C@H](C(=O)N[C@@H](CCCNC(=N)N)C(=O)NCC(=O)NCC(=O)NCC(=O)NCC(=O)NCC(=O)NCC(N)=O)C(C)C)C(C)C [g315] |  |  |  | 19.7 nM | 0.00504 nM | 0.0273 nM |
| CC(C)C[C@H](NC(=O)[C@H](Cc1ccc(O)cc1)NC(=O)[C@H](CCCCN)NC(=O)[C@H](CO)NC(=O)[C@H](Cc1ccc(O)cc1)NC(=O)[C@H](CC(=O)O)NC(=O)[C@H](CO)NC(=O)[C@@H](NC(=O)[C@H](Cc1ccccc1)NC(=O)[C@@H](NC(=O)CNC(=O)[C@H](CCC(N)=O)NC(=O)[C@H](CO)NC(=O)[C@@H](N)Cc1c[nH]cn1)[C@@H](C)O)[C@@H](C)O)C(=O)N[C@@H](CC(=O)O)C(=O)N[C@@H](CO)C(=O)N[C@@H](CCCNC(=N)N)C(=O)N[C@@H](CCCNC(=N)N)C(=O)N[C@@H](C)C(=O)N[C@@H](CCC(N)=O)C(=O)N[C@@H](CC(=O)O)C(=O)N[C@@H](Cc1ccccc1)C(=O)N[C@H](C(=O)N[C@@H](CCC(N)=O)C(=O)N[C@@H](Cc1c[nH]c2ccccc12)C(=O)N[C@@H](CC(C)C)C(=O)N[C@H](C(=O)N[C@@H](CCCNC(=N)N)C(=O)NCC(=O)NCC(=O)N[C@@H](CO)C(=O)N[C@@H](CO)C(=O)NCC(=O)NCC(=O)N[C@@H](CO)C(=O)N[C@@H](CO)C(N)=O)C(C)C)C(C)C [g316] |  |  |  | 3.65 nM | 0.0106 nM | 0.0314 nM |
| CCCCCCCCCCCCCCCC(=O)NCCCC[C@H](NC(=O)[C@H](CO)NC(=O)[C@@H]1CCCN1C(=O)[C@@H]1CCCN1C(=O)[C@@H]1CCCN1C(=O)[C@H](C)NC(=O)CNC(=O)[C@H](CO)NC(=O)[C@H](CO)NC(=O)[C@@H]1CCCN1C(=O)CNC(=O)CNC(=O)[C@H](CCCNC(=N)N)NC(=O)[C@@H](NC(=O)[C@H](CC(C)C)NC(=O)[C@H](Cc1c[nH]c2ccccc12)NC(=O)[C@H](CCC(N)=O)NC(=O)[C@@H](NC(=O)[C@H](Cc1ccccc1)NC(=O)[C@H](CC(=O)O)NC(=O)[C@H](CCC(N)=O)NC(=O)[C@H](C)NC(=O)[C@H](CCCNC(=N)N)NC(=O)[C@H](CCCNC(=N)N)NC(=O)[C@H](CO)NC(=O)[C@H](CC(=O)O)NC(=O)[C@H](CC(C)C)NC(=O)[C@H](Cc1ccc(O)cc1)NC(=O)[C@H](CCCCN)NC(=O)[C@H](CO)NC(=O)[C@H](Cc1ccc(O)cc1)NC(=O)[C@H](CC(=O)O)NC(=O)[C@H](CO)NC(=O)[C@@H](NC(=O)[C@H](Cc1ccccc1)NC(=O)[C@@H](NC(=O)CNC(=O)[C@H](CCC(N)=O)NC(=O)[C@H](CO)NC(=O)[C@@H](N)Cc1c[nH]cn1)[C@@H](C)O)[C@@H](C)O)C(C)C)C(C)C)C(N)=O [g320] (H-HSQGTFTSDYSKYLDSRRAQDFVQWLVRGGPSSGAPPPSK(Palmitoyl)-NH2; N-terminus assumed) |  |  |  | 1.01 nM | 0.0032 nM | 0.00938 nM |
| CCCCCCCCCCCCCCCC(=O)NCCCC[C@H](NC(=O)[C@H](C)NC(=O)[C@@H](NC(=O)[C@H](CC(N)=O)NC(=O)[C@H](CC(N)=O)NC(=O)[C@H](CCCNC(=N)N)NC(=O)[C@H](CC(N)=O)NC(=O)[C@H](CC(N)=O)NC(=O)[C@H](CCCCN)NC(=O)CNC(=O)CNC(=O)[C@H](CCCNC(=N)N)NC(=O)[C@@H](NC(=O)[C@H](CC(C)C)NC(=O)[C@H](Cc1c[nH]c2ccccc12)NC(=O)[C@H](CCC(N)=O)NC(=O)[C@@H](NC(=O)[C@H](Cc1ccccc1)NC(=O)[C@H](CC(=O)O)NC(=O)[C@H](CCC(N)=O)NC(=O)[C@H](C)NC(=O)[C@H](CCCNC(=N)N)NC(=O)[C@H](CCCNC(=N)N)NC(=O)[C@H](CO)NC(=O)[C@H](CC(=O)O)NC(=O)[C@H](CC(C)C)NC(=O)[C@H](Cc1ccc(O)cc1)NC(=O)[C@H](CCCCN)NC(=O)[C@H](CO)NC(=O)[C@H](Cc1ccc(O)cc1)NC(=O)[C@H](CC(=O)O)NC(=O)[C@H](CO)NC(=O)[C@@H](NC(=O)[C@H](Cc1ccccc1)NC(=O)[C@@H](NC(=O)CNC(=O)[C@H](CCC(N)=O)NC(=O)[C@H](CO)NC(=O)[C@@H](N)Cc1c[nH]cn1)[C@@H](C)O)[C@@H](C)O)C(C)C)C(C)C)[C@@H](C)CC)C(N)=O [g322] (H-HSQGTFTSDYSKYLDSRRAQDFVQWLVRGGKNNRNNIAK(Palmitoyl)-NH2; N-terminus assumed) |  |  |  | 1.72 nM | 0.00355 nM | 0.0106 nM |
| CCCCCCCCCCCCCCCC(=O)NCCCC[C@H](NC(=O)CNC(=O)CNC(=O)CNC(=O)CNC(=O)CNC(=O)CNC(=O)[C@H](CCCNC(=N)N)NC(=O)[C@@H](NC(=O)[C@H](CC(C)C)NC(=O)[C@H](Cc1c[nH]c2ccccc12)NC(=O)[C@H](CCC(N)=O)NC(=O)[C@@H](NC(=O)[C@H](Cc1ccccc1)NC(=O)[C@H](CC(=O)O)NC(=O)[C@H](CCC(N)=O)NC(=O)[C@H](C)NC(=O)[C@H](CCCNC(=N)N)NC(=O)[C@H](CCCNC(=N)N)NC(=O)[C@H](CO)NC(=O)[C@H](CC(=O)O)NC(=O)[C@H](CC(C)C)NC(=O)[C@H](Cc1ccc(O)cc1)NC(=O)[C@H](CCCCN)NC(=O)[C@H](CO)NC(=O)[C@H](Cc1ccc(O)cc1)NC(=O)[C@H](CC(=O)O)NC(=O)[C@H](CO)NC(=O)[C@@H](NC(=O)[C@H](Cc1ccccc1)NC(=O)[C@@H](NC(=O)CNC(=O)[C@H](CCC(N)=O)NC(=O)[C@H](CO)NC(=O)[C@@H](N)Cc1c[nH]cn1)[C@@H](C)O)[C@@H](C)O)C(C)C)C(C)C)C(N)=O [g326] |  |  |  | 12.6 nM | 0.00282 nM | 0.0247 nM |
| CCCCCCCCCCCCCCCC(=O)N[C@@H](CCC(=O)NCCCC[C@H](NC(=O)CNC(=O)CNC(=O)CNC(=O)CNC(=O)CNC(=O)CNC(=O)[C@H](CCCNC(=N)N)NC(=O)[C@@H](NC(=O)[C@H](CC(C)C)NC(=O)[C@H](Cc1c[nH]c2ccccc12)NC(=O)[C@H](CCC(N)=O)NC(=O)[C@@H](NC(=O)[C@H](Cc1ccccc1)NC(=O)[C@H](CC(=O)O)NC(=O)[C@H](CCC(N)=O)NC(=O)[C@H](C)NC(=O)[C@H](CCCNC(=N)N)NC(=O)[C@H](CCCNC(=N)N)NC(=O)[C@H](CO)NC(=O)[C@H](CC(=O)O)NC(=O)[C@H](CC(C)C)NC(=O)[C@H](Cc1ccc(O)cc1)NC(=O)[C@H](CCCCN)NC(=O)[C@H](CO)NC(=O)[C@H](Cc1ccc(O)cc1)NC(=O)[C@H](CC(=O)O)NC(=O)[C@H](CO)NC(=O)[C@@H](NC(=O)[C@H](Cc1ccccc1)NC(=O)[C@@H](NC(=O)CNC(=O)[C@H](CCC(N)=O)NC(=O)[C@H](CO)NC(=O)[C@@H](N)Cc1c[nH]cn1)[C@@H](C)O)[C@@H](C)O)C(C)C)C(C)C)C(N)=O)C(=O)O [g327] |  |  |  | 12.8 nM | 0.00232 nM | 0.0193 nM |
| CCCCCCCCCCCCCCCC(=O)N[C@@H](CCC(=O)NCCCC[C@H](NC(=O)[C@H](CO)NC(=O)[C@H](CC(=O)O)NC(=O)[C@H](CC(C)C)NC(=O)[C@H](Cc1ccc(O)cc1)NC(=O)[C@H](CCCCN)NC(=O)[C@H](CO)NC(=O)[C@H](Cc1ccc(O)cc1)NC(=O)[C@H](CC(=O)O)NC(=O)[C@H](CO)NC(=O)[C@@H](NC(=O)[C@H](Cc1ccccc1)NC(=O)[C@@H](NC(=O)CNC(=O)[C@H](CCC(N)=O)NC(=O)[C@H](CO)NC(=O)[C@@H](N)Cc1c[nH]cn1)[C@@H](C)O)[C@@H](C)O)C(=O)N[C@@H](CCCNC(=N)N)C(=O)N[C@@H](C)C(=O)N[C@@H](CCC(N)=O)C(=O)N[C@@H](CC(=O)O)C(=O)N[C@@H](Cc1ccccc1)C(=O)N[C@H](C(=O)N[C@@H](CCC(N)=O)C(=O)N[C@@H](Cc1c[nH]c2ccccc12)C(=O)N[C@@H](CC(C)C)C(=O)N[C@H](C(=O)N[C@@H](C)C(=O)NCC(=O)NCC(N)=O)C(C)C)C(C)C)C(=O)O [g335] |  |  |  | 582 nM | 0.0105 nM | 0.0733 nM |
